12 compounds from patent US11795177B2, “Substituted quinoline analogs as aldehyde dehydrogenase 1A1 (ALDH1A1) inhibitors” (THE UNITED STATES OF AMERICA, AS REPRESENTED BY THE …, priority 2017, dated 2023) can be followed below.

The target in one experiment is T1, ALDH1A1 enzyme (Homo sapiens, UniProt P00352).
T1 sequence (P00352 1-501): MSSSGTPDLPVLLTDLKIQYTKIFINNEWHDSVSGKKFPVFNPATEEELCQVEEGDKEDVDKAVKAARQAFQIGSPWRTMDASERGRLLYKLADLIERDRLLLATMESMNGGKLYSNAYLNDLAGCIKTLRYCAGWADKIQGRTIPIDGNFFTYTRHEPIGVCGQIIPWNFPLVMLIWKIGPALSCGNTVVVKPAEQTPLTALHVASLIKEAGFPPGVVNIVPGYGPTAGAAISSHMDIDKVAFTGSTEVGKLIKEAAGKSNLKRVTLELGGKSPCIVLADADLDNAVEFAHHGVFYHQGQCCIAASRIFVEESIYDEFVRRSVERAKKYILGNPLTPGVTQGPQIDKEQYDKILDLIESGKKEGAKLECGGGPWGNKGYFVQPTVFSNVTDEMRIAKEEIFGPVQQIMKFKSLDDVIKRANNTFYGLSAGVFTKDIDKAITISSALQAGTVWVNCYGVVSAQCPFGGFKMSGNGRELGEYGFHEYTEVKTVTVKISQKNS
The experiment can be described thus: ALDH1A1 enzymatic assay (in vitro). It counts as biochemical. The method, boiled down:
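ALDH1A1 (20 nM final) in 100 mM HEPES pH 7.5, 0.01% Tween 20 was preincubated 15 min at RT with compound (968 pM–57.2 μM final), then started with 1 mM NAD+ and 80 μM propionaldehyde. NADH fluorescence (ex 340/em 450 nm) followed kinetically for 10 min; change normalized to no-inhibitor and no-enzyme controls for percent inhibition and curve fitting.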

A further experiment relates to MIA PaCa-2 cells. The experiment is described as follows: MIA PaCa2 cell-based assay (1,536-well high-content imaging ALDEFLUOR assay). Also noted: species or system human. Particulars: Homo sapiens, 0.5 h, ALDEFLUOR BAAA substrate 500 nM, 30 minutes. The procedure, abridged: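 MIA PaCa-2 cells (1,000/well), plated overnight, given BAAA substrate (500 nM) plus Hoechst 33342 (0.5 nM), then compound (16-point, 1.4 nM–47.8 μM final; 0.5% DMSO). After 30 min at 37° C, ALDH activity imaged by high-content microscopy as BAA-retaining (FITC) cells versus Hoechst-stained nuclei.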

Where [1] appears, read: ALDH1A1 enzyme 20 nM, NAD+ 1 mM, propionaldehyde 80 μM, read-out: ALDH1A1 IC50.

Where two headings read alike, the source gives them in different places. Where only a bound is given, the exact number is not on record here.

The IC50 is the concentration needed to halve the response being measured. Consider `COc1ccc2ncc(C(=O)N3C[C@@H](C)O[C@@H](C)C3)c(N3CCC4(CC3)OCCO4)c2c1` [Example 33, ((2S*,6R*)-2,6-dimethylmorpholino)(6-methoxy-4-(1,4-dioxa-8-azaspiro[4.5]decan-8-yl)quinolin-3-yl)methanone], for which the half-inhibitory concentration (IC50) on ALDH1A1 enzyme (setting [1]) is 1000 to 10000 nM; with MIA PaCa-2 cells it was over 10000 nM.

Regarding `COc1ccc2ncc(C(=O)N3CCS(=O)(=O)CC3)c(N3CCC4(CC3)OCCO4)c2c1` [Example 36, (1,1-dioxidothiomorpholino)(6-methoxy-4-(1,4-dioxa-8-azaspiro[4.5]decan-8-yl)quinolin-3-yl)methanone], the IC50 was under 500 nM on ALDH1A1 enzyme (setting [1]) and over 10000 nM in the experiment on MIA PaCa-2 cells.

Take `COc1ccc2ncc(C(=O)N3CCC4(CC3)OCCO4)c(N3CCC4(CC3)OCCO4)c2c1` [Example 37, (6-methoxy-4-(1,4-dioxa-8-azaspiro[4.5]decan-8-yl)quinolin-3-yl)(1,4-dioxa-8-azaspiro[4.5]decan-8-yl)methanone]: the IC50 is under 500 nM on ALDH1A1 enzyme and 500 to 1000 nM in the experiment on MIA PaCa-2 cells.

With `COc1ccc2ncc(C(=O)N3CCN(C(C)=O)CC3)c(N3CCC4(CC3)OCCO4)c2c1` [Example 38, 1-(4-(6-methoxy-4-(1,4-dioxa-8-azaspiro[4.5]decan-8-yl)quinoline-3-carbonyl)piperazin-1-yl)ethanone], the IC50 on ALDH1A1 enzyme (setting [1]) was under 500 nM; with MIA PaCa-2 cells it was 1000 to 10000 nM.

`COc1ccc2ncc(C(=O)N3CCOCC3)c(N3CCC4(CC3)OCCO4)c2c1` [Example 39, (6-methoxy-4-(1,4-dioxa-8-azaspiro[4.5]decan-8-yl)quinolin-3-yl)(morpholino)methanone]: the IC50 is 500 to 1000 nM at ALDH1A1 enzyme (setting [1]) and over 10000 nM with MIA PaCa-2 cells.

As for `CCOC(=O)N1CCN(C(=O)c2cnc3ccc(OC)cc3c2N2CCC3(CC2)OCCO3)CC1` [Example 40, Ethyl 4-(6-methoxy-4-(1,4-dioxa-8-azaspiro[4.5]decan-8-yl)quinoline-3-carbonyl)piperazine-1-carboxylate], the IC50 on ALDH1A1 enzyme (setting [1]) is under 500 nM; in the experiment with MIA PaCa-2 cells, over 10000 nM.

With `CCNC(=O)N1CCN(C(=O)c2cnc3ccc(OC)cc3c2N2CCC3(CC2)OCCO3)CC1` [Example 43, N-ethyl-4-(6-methoxy-4-(1,4-dioxa-8-azaspiro[4.5]decan-8-yl)quinoline-3-carbonyl)piperazine-1-carboxamide], the IC50 at ALDH1A1 enzyme (setting [1]) is under 500 nM; with MIA PaCa-2 cells it was 1000 to 10000 nM.

For the compound `COc1ccc2ncc(C(=O)N3CCN(C(=O)C4CC4)CC3)c(N3CCC(F)(F)CC3)c2c1` [Example 44, (4-(cyclopropanecarbonyl)piperazin-1-yl)(4-(4,4-difluoropiperidin-1-yl)-6-methoxyquinolin-3-yl)methanone], the IC50 at ALDH1A1 enzyme (setting [1]) and with MIA PaCa-2 cells was over 10000 nM in each case.

As to `COc1ccc2ncc(C(=O)N3CCN(C(=O)C4CC4)CC3)c(N3CCC4(CC3)CC4)c2c1` [Example 46, (4-(cyclopropanecarbonyl)piperazin-1-yl)(6-methoxy-4-(6-azaspiro[2.5]octan-6-yl)quinolin-3-yl)methanone], the IC50 at ALDH1A1 enzyme (setting [1]) was under 500 nM; in the experiment with MIA PaCa-2 cells, 1000 to 10000 nM.

Consider `CC(C)C(=O)N1CCN(C(=O)c2cnc3ccc(F)cc3c2N2CCC3(CC2)OCCO3)CC1` [Example 49, 1-(4-(6-fluoro-4-(1,4-dioxa-8-azaspiro[4.5]decan-8-yl)quinoline-3-carbonyl)piperazin-1-yl)-2-methylpropan-1-one], for which the IC50 on ALDH1A1 enzyme (setting [1]) was under 500 nM; in the experiment with MIA PaCa-2 cells, over 10000 nM.

For `O=C(c1cnc2ccc(F)cc2c1N1CCC2(CC1)OCCO2)N1CCC(F)(F)CC1` [Example 50, (4,4-difluoropiperidin-1-yl)(6-fluoro-4-(1,4-dioxa-8-azaspiro[4.5]decan-8-yl)quinolin-3-yl)methanone], the IC50 on ALDH1A1 enzyme (setting [1]) was under 500 nM; in the experiment with MIA PaCa-2 cells it was over 10000 nM.

With `CC(=O)N1CCN(C(=O)c2cnc3ccc(F)cc3c2N2CCC3(CC2)OCCO3)CC1` [Example 51, 1-(4-(6-fluoro-4-(1,4-dioxa-8-azaspiro[4.5]decan-8-yl)quinoline-3-carbonyl)piperazin-1-yl)ethanone], the results for the IC50 on ALDH1A1 enzyme (setting [1]) and with MIA PaCa-2 cells were under 500 nM and over 10000 nM, respectively.
